In ChEMBL document CHEMBL1158440, “Linear disulfide-containing low polymer as efficient DNA cleavage reagent” (Bioorg Med Chem Lett, 2009):
Active and inactive are the calls of the source. The calls are words filed in the database; no cut-off is given here.

How the values were obtained:
Assay type in all cases: nucleic-acid assay
Nucleic Acid [1] = experiment: Induction of supercoiled Escherichia coli pUC19 cleavage assessed as formation of nicked DNA at 7 mg/L in phosphate buffered saline at pH 7.4 after 24 hrs by agarose gel electrophoresis relative to control
Nucleic Acid [2] = experiment: Induction of supercoiled Escherichia coli pUC19 cleavage assessed as formation of nicked DNA at 14 mg/L in phosphate buffered saline at pH 7.4 after 24 hrs by agarose gel electrophoresis relative to control
Nucleic Acid [3] = experiment: Induction of supercoiled Escherichia coli pUC19 cleavage assessed as formation of nicked DNA at 28 mg/L in phosphate buffered saline at pH 7.4 after 24 hrs by agarose gel electrophoresis relative to control
Nucleic Acid [4] = experiment: Induction of supercoiled Escherichia coli pUC19 cleavage assessed as formation of nicked DNA at 56 mg/L in phosphate buffered saline at pH 7.4 after 24 hrs by agarose gel electrophoresis relative to control
Nucleic Acid [5] = experiment: Induction of supercoiled Escherichia coli pUC19 cleavage assessed as formation of nicked DNA at 56 mg/L in phosphate buffered saline at pH 7.4 after 8 hrs by agarose gel electrophoresis relative to control
Calf thymus DNA = experiment: Binding affinity to calf thymus DNA assessed as change in melting temperature at 18 mg/L by spectrophotometry; conditions: Bos taurus
Nucleic Acid [6] = experiment: Induction of supercoiled Escherichia coli pUC19 cleavage assessed as formation of nicked DNA at 56 mg/L in phosphate buffered saline at pH 7.4 after 24 hrs by agarose gel electrophoresis in presence of NaN3
Nucleic Acid [7] = experiment: Induction of supercoiled Escherichia coli pUC19 cleavage assessed as formation of nicked DNA at 56 mg/L in phosphate buffered saline at pH 7.4 after 24 hrs by agarose gel electrophoresis in presence of potassium iodide
Nucleic Acid [8] = experiment: Induction of supercoiled Escherichia coli pUC19 cleavage assessed as formation of nicked DNA at 56 mg/L in phosphate buffered saline at pH 7.4 after 24 hrs by agarose gel electrophoresis in presence of tert-butyl alcohol
Nucleic Acid [9] = experiment: Induction of supercoiled Escherichia coli pUC19 cleavage assessed as formation of nicked DNA at 56 mg/L in phosphate buffered saline at pH 7.4 after 24 hrs by agarose gel electrophoresis in presence of DMSO
Nucleic Acid [10] = experiment: Induction of supercoiled Escherichia coli pUC19 cleavage assessed as formation of nicked DNA at 56 mg/L in phosphate buffered saline at pH 7.4 upto 24 hrs by agarose gel electrophoresis relative to control

Structure (SMILES) | Activity (Nucleic Acid [1]) [%] | Activity (Nucleic Acid [2]) [%] | Activity (Nucleic Acid [3]) [%] | Activity (Nucleic Acid [4]) [%] | Activity (Nucleic Acid [5]) | ΔTm (Calf thymus DNA) [°C] | Activity (Nucleic Acid [6]) | Activity (Nucleic Acid [7]) | Activity (Nucleic Acid [8]) | Activity (Nucleic Acid [9]) | Activity (Nucleic Acid [10]) [%]
O=C(CS)N1CCNCCN(C(=O)CSSCC(=O)N2CCNCCN(C(=O)CSSCC(=O)N3CCNCCN(C(=O)CSSCC(=O)N4CCNCCN(C(=O)CSSCC(=O)N5CCNCCN(C(=O)CS)CCNCC5)CCNCC4)CCNCC3)CCNCC2)CCNCC1 | 31 | 66 | 92 | 100 | Active | 4 | inactive | inactive | inactive | Active | –
O=C(CS)N1CCNCCN(C(=O)CS)CCNCC1 | 20 | 24 | 44 | 63 | 35% | 3.4 | – | – | – | – | 92
